From PubChem BioAssay (NCI)
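Five compound concentrations were applied to cells in 96-well plates for 48 hours; endpoints were derived by simple linear interpolation of the resulting dose-response curve. Here, GI50 denotes the concentration required for 50% inhibition of growth. The concentration for full growth arrest is given as TGI.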

Tests used:
Test in all cases: NCI anticancer screen, dose series, 48 h
786-0 renal = system: 786-0 renal
A498 renal = system: A498 renal
A549 NSCLC = system: A549 NSCLC
ACHN renal = system: ACHN renal
BT-549 breast = system: BT-549 breast
CAKI-1 renal = system: CAKI-1 renal
CCRF-CEM leukemia = system: CCRF-CEM leukemia
COLO 205 colon = system: COLO 205 colon
DU-145 prostate = system: DU-145 prostate
EKVX NSCLC = system: EKVX NSCLC
HCC-2998 colon = system: HCC-2998 colon
HCT-116 colon = system: HCT-116 colon
HCT-15 colon = system: HCT-15 colon
HL-60(TB) leukemia = system: HL-60(TB) leukemia
HOP-62 NSCLC = system: HOP-62 NSCLC
HOP-92 NSCLC = system: HOP-92 NSCLC
HS 578T breast = system: HS 578T breast
HT29 colon = system: HT29 colon
IGROV1 ovarian = system: IGROV1 ovarian
K-562 leukemia = system: K-562 leukemia
KM12 colon = system: KM12 colon
LOX IMVI melanoma = system: LOX IMVI melanoma
M14 melanoma = system: M14 melanoma
MALME-3M melanoma = system: MALME-3M melanoma
MCF7 breast = system: MCF7 breast
MDA-MB-231 breast = system: MDA-MB-231 breast
MDA-MB-435 = system: MDA-MB-435
MOLT-4 leukemia = system: MOLT-4 leukemia
NCI-H226 lung = system: NCI-H226 lung
NCI-H23 lung = system: NCI-H23 lung
NCI-H460 lung = system: NCI-H460 lung
NCI-H522 lung = system: NCI-H522 lung
NCI/ADR-RES ovarian = system: NCI/ADR-RES ovarian
OVCAR-3 ovarian = system: OVCAR-3 ovarian
OVCAR-4 ovarian = system: OVCAR-4 ovarian
OVCAR-5 ovarian = system: OVCAR-5 ovarian
OVCAR-8 ovarian = system: OVCAR-8 ovarian
PC-3 prostate = system: PC-3 prostate
RPMI-8226 leukemia = system: RPMI-8226 leukemia
RXF 393 renal = system: RXF 393 renal
SF-268 CNS = system: SF-268 CNS
SF-295 CNS = system: SF-295 CNS
SF-539 CNS = system: SF-539 CNS
SK-MEL-2 melanoma = system: SK-MEL-2 melanoma
SK-MEL-28 melanoma = system: SK-MEL-28 melanoma
SK-MEL-5 melanoma = system: SK-MEL-5 melanoma
SK-OV-3 ovarian = system: SK-OV-3 ovarian
SN12C renal = system: SN12C renal
SNB-19 CNS = system: SNB-19 CNS
SNB-75 CNS = system: SNB-75 CNS
SR leukemia = system: SR leukemia
SW-620 colon = system: SW-620 colon
T-47D breast = system: T-47D breast
TK-10 renal = system: TK-10 renal
U251 CNS = system: U251 CNS
UACC-257 melanoma = system: UACC-257 melanoma
UACC-62 melanoma = system: UACC-62 melanoma
UO-31 renal = system: UO-31 renal

Compound: Cc1ccc(NC2=CC(=O)C(=O)c3ccccc32)cc1
- GI50 (786-0 renal): 15 µM
- TGI (786-0 renal): > 100 µM
- GI50 (A498 renal): 1.32 µM
- TGI (A498 renal): 5.41 µM
- GI50 (A549 NSCLC): 1.72 µM
- TGI (A549 NSCLC): 3.68 µM
- GI50 (ACHN renal): 1.92 µM
- TGI (ACHN renal): 5.33 µM
- GI50 (BT-549 breast): 1.73 µM
- TGI (BT-549 breast): 3.31 µM
- GI50 (CAKI-1 renal): 3.14 µM
- TGI (CAKI-1 renal): 16.5 µM
- GI50 (CCRF-CEM leukemia): 5.62 µM
- TGI (CCRF-CEM leukemia): > 100 µM
- GI50 (COLO 205 colon): 1.65 µM
- TGI (COLO 205 colon): 3.1 µM
- GI50 (DU-145 prostate): 1.53 µM
- TGI (DU-145 prostate): 2.91 µM
- GI50 (EKVX NSCLC): 4 µM
- TGI (EKVX NSCLC): 18.9 µM
- GI50 (HCC-2998 colon): 2.11 µM
- TGI (HCC-2998 colon): 4.89 µM
- GI50 (HCT-116 colon): 2.23 µM
- TGI (HCT-116 colon): 9.13 µM
- GI50 (HCT-15 colon): 1.49 µM
- TGI (HCT-15 colon): 3.91 µM
- GI50 (HL-60(TB) leukemia): 2.77 µM
- TGI (HL-60(TB) leukemia): > 100 µM
- GI50 (HOP-62 NSCLC): 1.8 µM
- TGI (HOP-62 NSCLC): 4.33 µM
- GI50 (HOP-92 NSCLC): 5.71 µM
- TGI (HOP-92 NSCLC): 20.2 µM
- GI50 (HS 578T breast): 2.54 µM
- TGI (HS 578T breast): 7.26 µM
- GI50 (HT29 colon): 2.14 µM
- TGI (HT29 colon): 4.47 µM
- GI50 (IGROV1 ovarian): 2.73 µM
- TGI (IGROV1 ovarian): 12.9 µM
- GI50 (K-562 leukemia): 3.47 µM
- TGI (K-562 leukemia): > 100 µM
- GI50 (KM12 colon): 2.59 µM
- TGI (KM12 colon): 9.73 µM
- GI50 (LOX IMVI melanoma): 2.11 µM
- TGI (LOX IMVI melanoma): 6.45 µM
- GI50 (M14 melanoma): 1.9 µM
- TGI (M14 melanoma): 3.79 µM
- GI50 (MALME-3M melanoma): 1.63 µM
- TGI (MALME-3M melanoma): 3.17 µM
- GI50 (MCF7 breast): 1.54 µM
- TGI (MCF7 breast): 3.63 µM
- GI50 (MDA-MB-231 breast): 2.57 µM
- TGI (MDA-MB-231 breast): 15.8 µM
- GI50 (MDA-MB-435): 1.74 µM
- TGI (MDA-MB-435): 3.2 µM
- GI50 (MOLT-4 leukemia): 3.71 µM
- TGI (MOLT-4 leukemia): > 100 µM
- GI50 (NCI-H226 lung): 1.92 µM
- TGI (NCI-H226 lung): 4.46 µM
- GI50 (NCI-H23 lung): 1.56 µM
- TGI (NCI-H23 lung): 4.1 µM
- GI50 (NCI-H460 lung): 1.7 µM
- TGI (NCI-H460 lung): 3.94 µM
- GI50 (NCI-H522 lung): 1.45 µM
- TGI (NCI-H522 lung): 3.18 µM
- GI50 (NCI/ADR-RES ovarian): 2.17 µM
- TGI (NCI/ADR-RES ovarian): 17.4 µM
- GI50 (OVCAR-3 ovarian): 1.66 µM
- TGI (OVCAR-3 ovarian): 4.86 µM
- GI50 (OVCAR-4 ovarian): 1.39 µM
- TGI (OVCAR-4 ovarian): 2.72 µM
- GI50 (OVCAR-5 ovarian): 1.9 µM
- TGI (OVCAR-5 ovarian): 3.54 µM
- GI50 (OVCAR-8 ovarian): 2.4 µM
- TGI (OVCAR-8 ovarian): 7.82 µM
- GI50 (PC-3 prostate): 1.87 µM
- TGI (PC-3 prostate): 15.7 µM
- GI50 (RPMI-8226 leukemia): 3.55 µM
- TGI (RPMI-8226 leukemia): > 100 µM
- GI50 (RXF 393 renal): 3.32 µM
- TGI (RXF 393 renal): 13.7 µM
- GI50 (SF-268 CNS): 2.78 µM
- TGI (SF-268 CNS): 12.1 µM
- GI50 (SF-295 CNS): 1.7 µM
- TGI (SF-295 CNS): 3.15 µM
- GI50 (SF-539 CNS): 1.8 µM
- TGI (SF-539 CNS): 3.77 µM
- GI50 (SK-MEL-2 melanoma): 1.86 µM
- TGI (SK-MEL-2 melanoma): 4.06 µM
- GI50 (SK-MEL-28 melanoma): 1.84 µM
- TGI (SK-MEL-28 melanoma): 3.58 µM
- GI50 (SK-MEL-5 melanoma): 1.38 µM
- TGI (SK-MEL-5 melanoma): 2.67 µM
- GI50 (SK-OV-3 ovarian): 11.3 µM
- TGI (SK-OV-3 ovarian): 23.5 µM
- GI50 (SN12C renal): 1.65 µM
- TGI (SN12C renal): 3.32 µM
- GI50 (SNB-19 CNS): 2.09 µM
- TGI (SNB-19 CNS): 4.96 µM
- GI50 (SNB-75 CNS): 0.779 µM
- TGI (SNB-75 CNS): 2.11 µM
- GI50 (SR leukemia): 3.96 µM
- TGI (SR leukemia): > 100 µM
- GI50 (SW-620 colon): 1.92 µM
- TGI (SW-620 colon): 4.01 µM
- GI50 (T-47D breast): 3.68 µM
- TGI (T-47D breast): 18.1 µM
- GI50 (TK-10 renal): 2.83 µM
- TGI (TK-10 renal): 11 µM
- GI50 (U251 CNS): 2.01 µM
- TGI (U251 CNS): 5.71 µM
- GI50 (UACC-257 melanoma): 1.43 µM
- TGI (UACC-257 melanoma): 2.8 µM
- GI50 (UACC-62 melanoma): 1.73 µM
- TGI (UACC-62 melanoma): 3.23 µM
- GI50 (UO-31 renal): 1.17 µM
- TGI (UO-31 renal): 3.79 µM
